The record followed here is patent US10604512B2, “3-(1H-indol-2-yl)-1H-indazoles and therapeutic uses thereof” (Samumed, LLC, priority 2015, dated 2020).

What all share (assay type): cell-based
Experiment [1] deals with Wnt activity (Sp5-Luc reporter, TCF/LEF binding sites) in SW480 colon carcinoma cells. In words: Screening assay for Wnt activity: Sp5-Luc reporter gene assay in stably transduced SW480 colon carcinoma cells. Conditions: Homo sapiens, overnight incubation, 10-point curve from 10 μM. An excerpt: The screening assay for Wnt activity is described as follows. Reporter cell lines can be generated by stably transducing cancer cell lines (e.g., colon cancer) or primary cells (e.g., IEC-6 intestinal cells) with a lentiviral construct that includes a Wnt-responsive promoter driving expression of the firefly luciferase gene.
SW480 colon carcinoma cells were transduced with a lentiviral vector expressing luciferase with a human Sp5 promoter consisting of a sequence of eight TCF/LEF binding sites. SW480 cells stably expressing the Sp5-Luc reporter gene and a hygromycin resistance gene were selected by treatment with 150 μg/mL of hygromycin for 7 days. These stably transduced SW480 cells were expanded in cell culture and used for all further screening activities. Each compound was dissolved in DMSO as a 10 mM stock and used to prepare compound source plates. Serial dilution (1:3, 10-point dose-response curves starting from 10 μM) and compound transfer was performed using the ECHO 550 (Labcyte, Sunnyvale, Calif.) into 384-well white solid bottom assay plates (Greiner Bio-One) with appropriate DMSO backfill for a final DMSO concentration of 0.1%. For Sp5-Luc reporter gene assays, the cells were plated at 4,000 cells/well in 384-well plates with medium containing 1% fetal bovine serum and incubated overnight at 37° C. and 5% CO2. Following incubation, 20 μl of BrightGlo luminescence reagent (Promega) was added to each well of the 384-well assay plates. The plates were placed on an orbital shaker for 2 min and then luminescence was quantified using the Envision (Perkin Elmer) plate reader. Readings were normalized to DMSO only treated cells, and normalized activities were utilized for EC50 calculations using the dose-response log (inhibitor) vs. response variable slope (four parameters) nonlinear regression feature available in GraphPad Prism 5.0 (or Dotmatics). For EC50 of >10 μM, the percent inhibition at 10 μM is provided.
A general note: A reporter such as luciferase makes a cellular process visible.

In a further experiment the test system is IL-6. In words: Inhibition of IL-6 in LPS-stimulated THP-1 human monocyte cells (HTRF). Conditions: IL-6 inhibition, LPS-stimulated THP-1 cells, HTRF. How it is done:
Human monocyte cell line (THP-1 cells; Catalog # TIB-202, ATCC, Manassas, Va.) were cultured in Roswell Park Memorial Institute (RPMI) 1640 Medium (Catalog #21870-100, Buffalo, N.Y.) with 1% L-glutamine, 1% HEPES, 1% Sodium Pyruvate, 2% Sodium Bicarbonate supplemented with 100 units/mL penicillin, 50 μg/mL streptomycin, 2-mercaptoethanol (0.05 mM) [basal medium] and 10% fetal bovine serum (Catalog #16140089, Life Technologies, Carlsbad, Calif.) at 37° C. and 5% CO2.
THP-1 cells were cultured in basal media with 1% FBS for 24 hours before the start of the assay. Each compound was dissolved in DMSO as a 10 mM stock and used to prepare compound source plates. Serial dilution (1:3, 10-point dose-response curves starting from 10 μM) and compound transfer was performed using the ECHO 550 (Labcyte, Sunnyvale, Calif.) into 384-well white low volume assay plates (Greiner Bio-One) with appropriate DMSO backfill for a final DMSO concentration of 0.1%. THP-1 cells were plated at 5000 cells/well in the 384-well plates and incubated at 37° C. for 2 h. 500 ng/mL of LPS was added after 2 hours and cells were incubated for another 22 hours at 37° C. Plates were spun in a centrifuge for 1 minute at […] and a mixture of anti-IL6 XL665, and anti-IL6 Cryptate diluted in reconstitution buffer (Cisbio Inc.) was added to each well. Following incubation for 3 hrs at room temperature, Homogeneous Time-Resolved Fluorescence (HTRF) was measured using the Envision (Perkin Elmer) at 665 nm and […]. The ratio of fluorescence at 665 nm to 620 nm was used as a readout for IL6 quantification. All samples were processed in duplicate. Readings were normalized to DMSO treated cells and normalized activities were utilized for EC50 calculations using the dose-response log (inhibitor) vs. response variable slope (four parameters) nonlinear regression feature available in GraphPad Prism 5.0 (or Dotmatics). For EC50 of >10 μM, the percent inhibition at 10 μM is provided.

Experiment [2] concerns Primary human fibroblasts derived from IPF patients (LL29 cells) treated with TGF-β1. In words: Inhibition of the fibrotic process: αSMA staining in TGF-β1-treated primary human fibroblasts from IPF patients (LL29 cells). The conditions noted are these: Fibroblast, 96 h, % αSMA-positive LL29 cells, TGF-β1 20 ng/mL, 4 days. An excerpt:
Representative compounds were screened using primary human fibroblasts (derived from IPF patients) treated with TGF-β1 to determine their ability to inhibit the fibrotic process.
Primary human fibroblasts derived from IPF patients (LL29 cells) [^1Xiaoqiu Liu, et. al., “Fibrotic Lung Fibroblasts Show Blunted Inhibition by cAMP Due to Deficient cAMP Response Element-Binding Protein Phosphorylation”, Journal of Pharmacology and Experimental Therapeutics (2005), 315(2), 678-687; ^2Watts, K. L., et. al., “RhoA signaling modulates cyclin D1 expression in human lung fibroblasts; implications for idiopathic pulmonary fibrosis”, Respiratory Research (2006), 7(1), 88] were obtained from American Type Culture Collection (ATCC) and expanded in F12 medium supplemented with 15% Fetal Bovine Serum and Penicillin/Streptomycin.
Each compound was dissolved in DMSO as a 10 mM stock and used to prepare compound source plates. Serial dilution (1:2, 11-point dose-response curves from 10 μM to […]) and compound transfer was performed using the ECHO 550 (Labcyte, Sunnyvale, Calif.) into 384-well clear bottom assay plates (Greiner Bio-One) with appropriate DMSO backfill for a final DMSO concentration of 0.1%. LL29 cells are plated at 1,500 cells/well in 80 μL/well F12 medium supplemented with 1% Fetal Bovine Serum. One hour after addition of the cells, TGF-β1 (Peprotech; 20 ng/mL) was added to the plates to induce fibrosis (ref 1 and 2 above). Wells treated with TGF-β1 and containing DMSO were used as controls. Cells were incubated at 37° C. and 5% CO2 for 4 days. Following incubation for 4 days, SYTOX green nucleic acid stain (Life Technologies [Thermo Fisher Scientific]) was added to the wells at a final concentration of 1 μM and incubated at room temperature for 30 min. Cells were then fixed using 4% formaldehyde (Electron Microscopy Sciences), washed 3 times with PBS followed by blocking and permeabilization using 3% Bovine Serum Albumin (BSA; Sigma) and 0.3% Triton X-100 (Sigma) in PBS. Cells were then stained with antibody specific to α-smooth muscle actin (αSMA; Abcam) (ref 1 and 2 above) in 3% Bovine Serum Albumin (BSA; Sigma) and 0.3% Triton X-100 (Sigma) in PBS, and incubated overnight at 4° C. Cells were then washed 3 times with PBS, followed by incubation with Alexa Flor-647 conjugated secondary antibody (Life Technologies [Thermo Fisher Scientific]) and DAPI at room temperature for 1 hour. Cells were then washed 3 times with PBS and plates were sealed for imaging. αSMA staining was imaged by excitation at 630 nm and emission at 665 nm and quantified using the Compartmental Analysis program on the CellInsight CX5 (Thermo Scientific). Dead or apoptotic cells were excluded from analysis based on positive SYTOX green staining. % of total cells positive for αSMA were counted in each well and normalized to the average of 11 wells treated with TGF-β1 on the same plate using Dotmatics' Studies Software. The normalized averages (fold change over untreated) of 3 replicate wells for each compound concentration were used to create dose-responses curves and EC50 values were calculated using non-linear regression curve fit in the Dotmatics' Studies Software. For EC50 of >10 μM, the percent inhibition at 10 μM is provided.

The next experiment relates to SW480 colon cancer cells. In words: Cell viability assay (CellTiter-Blue) in SW480 colon cancer cells. Conditions: Homo sapiens, 96 h, four days, CellTiter-Blue. As for the experimental part: Representative compounds were screened using the following assay procedure to assess the effect on cell viability as described below.
Each compound was dissolved in DMSO as a 10 mM stock and used to prepare compound source plates. Serial dilution (1:3, 8-point dose-response curves from 10 μM to 0.0045 μM) and compound transfer was performed using the ECHO 550 (Labcyte, Sunnyvale, Calif.) into 96-well clear bottom, black-walled plates (Corning-Costar).
Approximately 2×10^3 SW480 colon cancer cells were seeded into each well and allowed to incubate in the presence or absence of compound for four days at 37° C./5% CO2. Eight replicates of DMSO-treated cells served as controls and cells treated with compound were performed in duplicate.
After incubation, 20 μL of CellTiter-Blue (Promega) was added to each well allowed to incubate for approximately 3 hours. This reagent was a buffered solution which contains resazurin, metabolically active cells were able to reduce rezarurin (blue) into resorufin (pink) which was highly fluorescent. This measured fluorescence was used as a readout for cell viability.
After incubation, the plates were read at Ex 560 nm Em 590 nm (Cytation 3, BioTek). Dose-response curves were generated and EC50 concentration values were calculated using non-linear regression curve fit in the GraphPad Prism (San Diego, Calif.) or Dotmatics' Studies Software (Bishops Stortford, UK). For EC50 of >10 μM, the percent inhibition at 10 μM is provided.

The EC50 is the midpoint of the concentration-response curve. A high value points to lower potency in that assay. For `CN(C)CCNc1cc(F)cc(-c2cccc3[nH]c(-c4n[nH]c5ccc(-c6cncc(N7CC(N)C7)n6)cc45)cc23)c1` [Compound 810, N^1-(3-(2-(5-(6-(3-Aminoazetidin-1-yl)pyrazin-2-yl)-1H-indazol-3-yl)-1H-indol-4-yl)-5-fluorophenyl)-N^2,N^2-dimethylethane-1,2-diamine], the EC50 amounted to 224 nM in experiment [1], 77 nM in the experiment with IL-6, 653 nM in experiment [2] and 458 nM in the experiment on SW480 colon cancer cells.
`Fc1ccccc1-c1cccc2[nH]c(-c3n[nH]c4ccc(-c5cncc(CN6CCCCC6)c5)cc34)cc12` [Compound 71, 3-(4-(2-Fluorophenyl)-1H-indol-2-yl)-5-(5-(piperidin-1-ylmethyl)pyridin-3-yl)-1H-indazole]: the EC50 was found to be 1160 nM in experiment [1], 3110 nM with IL-6, 2550 nM in experiment [2] and 2170 nM in the experiment with SW480 colon cancer cells.
For the compound `c1cc(-c2ccoc2)c2cc(-c3n[nH]c4ccc(-c5cnccn5)cc34)[nH]c2c1` [Compound 724, 3-(4-(Furan-3-yl)-1H-indol-2-yl)-5-(pyrazin-2-yl)-1H-indazole], the EC50 in experiment [1] is 791 nM; in the experiment on IL-6, 31 nM; in experiment [2] it was 96 nM; with SW480 colon cancer cells, 3510 nM.
Take `CC(C)CC(=O)Nc1cncc(-c2ccc3[nH]nc(-c4cc5c(-c6ccccn6)cccc5[nH]4)c3c2)c1` [Compound 142, 3-Methyl-N-(5-(3-(4-(pyridin-2-yl)-1H-indol-2-yl)-1H-indazol-5-yl)pyridin-3-yl)butanamide]: the EC50 in experiment [1] came to 185 nM; with IL-6, 164 nM; in experiment [2] it was 312 nM; in the experiment with SW480 colon cancer cells, 918 nM.
As to `Fc1ccccc1-c1cccc2[nH]c(-c3n[nH]c4ccc(-c5cncc(OC6CCNCC6)c5)cc34)cc12` [Compound 572, 3-(4-(2-Fluorophenyl)-1H-indol-2-yl)-5-(5-(piperidin-4-yloxy)pyridin-3-yl)-1H-indazole], the EC50 in experiment [1] was 1020 nM; in the experiment on IL-6, 3500 nM; in experiment [2] it was 2230 nM; in the experiment with SW480 colon cancer cells it was 1400 nM.
Taken in the same sequence, the figures for `CN(C)CCNc1cc(F)cc(-c2cccc3[nH]c(-c4n[nH]c5ccc(-c6cncc(NC(=O)Cc7ccccc7)c6)cc45)cc23)c1` [Compound 458, N-(5-(3-(4-(3-((2-(Dimethylamino)ethyl)amino)-5-fluorophenyl)-1H-indol-2-yl)-1H-indazol-5-yl)pyridin-3-yl)-2-phenylacetamide] were 422 nM, 354 nM, 1010 nM and 767 nM.
Regarding `CCCC(=O)Nc1cncc(-c2ccc3[nH]nc(-c4cc5c(N6CCCCC6)cccc5[nH]4)c3c2)c1` [Compound 185, N-(5-(3-(4-(Piperidin-1-yl)-1H-indol-2-yl)-1H-indazol-5-yl)pyridin-3-yl) butyramide], the EC50 amounted to 469 nM in experiment [1], 7150 nM with IL-6, 682 nM in experiment [2] and 1840 nM in the experiment with SW480 colon cancer cells.
Taken in the same sequence, the figures for `O=C(Nc1cncc(-c2ccc3[nH]nc(-c4cc5c(-c6cccnc6)cccc5[nH]4)c3c2)c1)C1CCC1` [Compound 105, N-(5-(3-(4-(Pyridin-3-yl)-1H-indol-2-yl)-1H-indazol-5-yl)pyridin-3-yl) cyclobutanecarboxamide] were 110 nM, 174 nM, 144 nM and 597 nM.
Regarding `CN(C)Cc1cncc(-c2ccc3[nH]nc(-c4cc5c(-c6cc(F)cc(CNS(C)(=O)=O)c6)cccc5[nH]4)c3c2)c1` [Compound 489, N-(3-(2-(5-(5-((Dimethylamino)methyl)pyridin-3-yl)-1H-indazol-3-yl)-1H-indol-4-yl)-5-fluorobenzyl)methanesulfonamide], the EC50 in experiment [1] came out at 120 nM; in the experiment on IL-6, 1060 nM; in experiment [2], 406 nM; in the experiment on SW480 colon cancer cells, 568 nM.
